Measurements reported in ChEMBL document CHEMBL4138119, “Anti-diabetic activity of fused PPARγ-SIRT1 ligands with limited body-weight gain by mimicking calorie restriction and decreasing SGK1 expression” (Eur J Med Chem, 2017).
The source made the active and inactive calls. The rule behind the calls is not given here.

Tests used:
[1] = Modulation of SGK1 mRNA expression in HCCD cells at 20 uM after 24 hrs by RT-PCR method relative to control; assay type: functional, Homo sapiens
[2] = tested on: Mus musculus; assay: Toxicity in ob/ob mouse assessed as change in body weight at 3 mg/kg administered via oral gavage daily for 4 days measured on day 5 relative to control; assay type: organism-based; settings: in vivo, 96 h
[3] = target: T1, NAD-dependent protein deacetylase sirtuin-1 (Homo sapiens) (UniProt Q96EB6); assay: Activation of recombinant human SIRT1 at 10 uM using C-terminal AMC labeled Arg-His-Lys-Lys (Ac) as substrate after 30 mins by FLUOR DE LYS fluorescent assay relative to control
T1 sequence (whole entry): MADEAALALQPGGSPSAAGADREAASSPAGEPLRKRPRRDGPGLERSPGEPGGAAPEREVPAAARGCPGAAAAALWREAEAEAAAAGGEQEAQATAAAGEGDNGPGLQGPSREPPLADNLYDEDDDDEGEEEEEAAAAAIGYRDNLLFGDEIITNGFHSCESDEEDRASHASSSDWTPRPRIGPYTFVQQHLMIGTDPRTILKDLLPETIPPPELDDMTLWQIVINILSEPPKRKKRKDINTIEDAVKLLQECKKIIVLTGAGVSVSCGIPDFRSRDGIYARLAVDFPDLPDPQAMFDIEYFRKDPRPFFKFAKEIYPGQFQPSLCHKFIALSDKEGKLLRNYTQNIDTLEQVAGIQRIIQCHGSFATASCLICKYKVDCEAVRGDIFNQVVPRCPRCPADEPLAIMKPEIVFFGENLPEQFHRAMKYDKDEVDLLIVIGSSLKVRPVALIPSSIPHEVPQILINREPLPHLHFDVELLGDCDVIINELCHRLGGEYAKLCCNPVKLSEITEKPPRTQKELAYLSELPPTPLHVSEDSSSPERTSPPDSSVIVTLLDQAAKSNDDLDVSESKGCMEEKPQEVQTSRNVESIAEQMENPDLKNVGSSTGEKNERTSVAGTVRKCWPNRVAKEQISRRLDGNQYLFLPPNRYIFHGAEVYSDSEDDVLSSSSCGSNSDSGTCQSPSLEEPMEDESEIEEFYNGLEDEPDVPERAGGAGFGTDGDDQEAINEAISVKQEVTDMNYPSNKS

[4] = target: T2, Peroxisome proliferator-activated receptor alpha (Homo sapiens) (UniProt Q07869); assay: Transactivation of human Gal4-fused PPARalpha LBD expressed in African green monkey COS7 cells after 24 hrs by luciferase reporter gene assay relative to WY14643; assay type: cell-based
T2 sequence (whole entry): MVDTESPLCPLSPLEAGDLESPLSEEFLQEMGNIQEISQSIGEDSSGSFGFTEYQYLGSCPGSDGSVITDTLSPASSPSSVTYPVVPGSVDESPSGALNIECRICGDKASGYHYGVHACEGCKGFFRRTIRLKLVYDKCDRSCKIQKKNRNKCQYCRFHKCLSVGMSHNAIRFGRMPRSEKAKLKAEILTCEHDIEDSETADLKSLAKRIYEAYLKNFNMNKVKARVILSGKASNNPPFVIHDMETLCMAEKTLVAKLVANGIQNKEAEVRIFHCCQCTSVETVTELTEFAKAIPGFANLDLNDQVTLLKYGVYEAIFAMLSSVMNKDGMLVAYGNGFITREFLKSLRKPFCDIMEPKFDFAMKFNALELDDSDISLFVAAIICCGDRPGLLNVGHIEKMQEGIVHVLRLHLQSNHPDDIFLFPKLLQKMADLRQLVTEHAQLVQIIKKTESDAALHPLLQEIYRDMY

[5] = target: T3, Peroxisome proliferator-activated receptor gamma (Homo sapiens, UniProt P37231); assay: Transactivation of human Gal4-fused PPARgamma LBD expressed in African green monkey COS7 cells after 24 hrs by luciferase reporter gene assay; assay type: cell-based; settings: read-out: EC50
T3 sequence (P37231 whole entry): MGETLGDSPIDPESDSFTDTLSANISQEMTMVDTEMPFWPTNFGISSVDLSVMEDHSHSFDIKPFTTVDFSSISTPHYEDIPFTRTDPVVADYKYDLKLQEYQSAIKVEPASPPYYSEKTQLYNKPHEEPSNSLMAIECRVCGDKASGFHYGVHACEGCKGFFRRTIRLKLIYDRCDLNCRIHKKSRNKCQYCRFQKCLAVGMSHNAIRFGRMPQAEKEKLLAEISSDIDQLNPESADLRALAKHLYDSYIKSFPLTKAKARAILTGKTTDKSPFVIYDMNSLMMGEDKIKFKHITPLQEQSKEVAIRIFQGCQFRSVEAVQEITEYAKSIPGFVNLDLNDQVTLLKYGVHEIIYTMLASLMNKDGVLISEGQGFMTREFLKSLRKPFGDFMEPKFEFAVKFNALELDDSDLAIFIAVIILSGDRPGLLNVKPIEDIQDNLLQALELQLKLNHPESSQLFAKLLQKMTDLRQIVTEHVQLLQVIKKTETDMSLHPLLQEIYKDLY

[6] = tested on: Mus musculus; assay: Toxicity in ob/ob mouse assessed as change in body weight at 8.4 uM/kg administered via oral gavage daily for 4 days measured on day 5 relative to control; assay type: organism-based; settings: in vivo, 96 h, 8.4 µmol/kg
[7] = tested on: Mus musculus; assay: Anti-diabetic activity in ob/ob mouse assessed as change in serum glucose levels at 8.4 uM/kg administered via oral gavage daily for 4 days measured on day 5 relative to control; assay type: functional
[8] = target: T4, Peroxisome proliferator-activated receptor alpha (Homo sapiens, UniProt Q07869); assay: Transactivation of human Gal4-fused PPARalpha LBD expressed in African green monkey COS7 cells after 24 hrs by luciferase reporter gene assay; assay type: cell-based
T4 sequence (Q07869 whole entry): T2 sequence (whole entry)

[9] = target: T5, Peroxisome proliferator-activated receptor delta (Homo sapiens) (UniProt Q03181); assay: Transactivation of human PPARdelta at 10 uM
T5 sequence (whole entry): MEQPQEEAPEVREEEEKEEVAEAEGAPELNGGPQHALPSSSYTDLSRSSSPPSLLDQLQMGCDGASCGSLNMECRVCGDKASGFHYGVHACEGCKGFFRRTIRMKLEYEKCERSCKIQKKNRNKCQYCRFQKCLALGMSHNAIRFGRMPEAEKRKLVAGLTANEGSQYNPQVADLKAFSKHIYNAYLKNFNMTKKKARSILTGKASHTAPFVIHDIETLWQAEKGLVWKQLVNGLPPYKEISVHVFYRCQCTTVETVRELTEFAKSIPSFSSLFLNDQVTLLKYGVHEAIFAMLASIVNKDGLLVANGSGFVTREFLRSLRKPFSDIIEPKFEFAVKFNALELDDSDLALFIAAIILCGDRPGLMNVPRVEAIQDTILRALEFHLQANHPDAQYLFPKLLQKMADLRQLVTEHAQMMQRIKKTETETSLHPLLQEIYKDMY

[10] = tested on: Mus musculus; assay: Anti-diabetic activity in ob/ob mouse assessed as change in serum insulin levels at 8.4 uM/kg administered via oral gavage daily for 4 days measured on day 5 relative to control; assay type: functional
[11] = tested on: Mus musculus; assay: Anti-diabetic activity in ob/ob mouse assessed as change in serum triglyceride levels at 8.4 uM/kg administered via oral gavage daily for 4 days measured on day 5 relative to control; assay type: functional

SMILES | Activity [1] [%] | Activity [2] [%] | Activity [3] [%] | Emax [4] [%] | EC50 [5] [µM] | Activity [6] [%] | Activity [7] [%] | EC50 [8] [µM] | Activity [9] | Activity [10] [%] | Activity [11] [%]
CN(CCOc1ccc(CC2SC(=O)NC2=O)cc1)c1ccccn1 (centres undefined) [ROSIGLITAZONE] | 119 | 100 | 5 | – | – | – | – | – | – | – | –
COc1ccc(OC(=O)N(CC(=O)O)Cc2ccc(OCCc3nc(-c4ccccc4)oc3C)cc2)cc1 [MURAGLITAZAR] | 178 | 206 | – | 84 | – | – | – | – | – | – | –
CCOC(=O)C(Cc1ccc(OCCn2c(=O)sc3cc(C(=O)/C=C/c4cc(O)cc(O)c4)ccc32)cc1)OCC (centres undefined) | 243 | – | 0 | 42 | 0.02 | 91 | -30 | 10 | inactive | -4 | -28
Cc1oc(-c2ccccc2)nc1CCOc1ccc(C[C@H](Nc2ccccc2C(=O)c2ccccc2)C(=O)O)cc1 [FARGLITAZAR] | 969 | 162 | – | 231 | – | – | – | – | – | – | –
